Measured values published in patent publication US12559506B2, “Indazole based compounds and associated methods of use” (Arvinas Operations, Inc., priority 2021, dated 2026).

Tests used:
G2019S LRRK2 = molecular target: T1, G2019S LRRK2 (Homo sapiens, UniProt Q5S007, G2019S); experiment: LRRK2 degradation assay, HiBit-tagged G2019S LRRK2 expressed from plasmid in HEK293 cells (Nano-Glo Dual-Luciferase); assay type: cell-based; settings: HiBit-tagged G2019S LRRK2, HEK293 cells, 24 hours
T1 construct: expressed in transfected cells; host or cells: HEK293 (ATCC CRL-1573), transient transfection, mammalian expression vector with ubiquitin promoter
Procedure, shortened: (§1)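 HEK293 cells co-transfected with C-terminal HiBiT-tagged LRRK2 (WT or G2019S, ubiquitin promoter) and firefly luciferase, then dosed 24 h at 37 °C. HiBiT/firefly ratio normalized to DMSO median; DC50 and Dmax from per-plate curve fits, six replicates over two days.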

wildtype LRRK2 = molecular target: T2, wildtype LRRK2 (Homo sapiens, UniProt Q5S007); experiment: LRRK2 degradation assay, HiBit-tagged wildtype LRRK2 expressed from plasmid in HEK293 cells (Nano-Glo Dual-Luciferase); assay type: cell-based; settings: HiBit-tagged wildtype LRRK2, HEK293 cells, 24 hours; for Dmax: read-out: **WT Dmax (%); for DC50: read-out: *WT DC50
T2 construct: expressed in transfected cells; host or cells: HEK293 (ATCC CRL-1573), transient transfection, mammalian expression vector with ubiquitin promoter
Procedure, shortened: as §1

T2 sequence (Q5S007 whole entry): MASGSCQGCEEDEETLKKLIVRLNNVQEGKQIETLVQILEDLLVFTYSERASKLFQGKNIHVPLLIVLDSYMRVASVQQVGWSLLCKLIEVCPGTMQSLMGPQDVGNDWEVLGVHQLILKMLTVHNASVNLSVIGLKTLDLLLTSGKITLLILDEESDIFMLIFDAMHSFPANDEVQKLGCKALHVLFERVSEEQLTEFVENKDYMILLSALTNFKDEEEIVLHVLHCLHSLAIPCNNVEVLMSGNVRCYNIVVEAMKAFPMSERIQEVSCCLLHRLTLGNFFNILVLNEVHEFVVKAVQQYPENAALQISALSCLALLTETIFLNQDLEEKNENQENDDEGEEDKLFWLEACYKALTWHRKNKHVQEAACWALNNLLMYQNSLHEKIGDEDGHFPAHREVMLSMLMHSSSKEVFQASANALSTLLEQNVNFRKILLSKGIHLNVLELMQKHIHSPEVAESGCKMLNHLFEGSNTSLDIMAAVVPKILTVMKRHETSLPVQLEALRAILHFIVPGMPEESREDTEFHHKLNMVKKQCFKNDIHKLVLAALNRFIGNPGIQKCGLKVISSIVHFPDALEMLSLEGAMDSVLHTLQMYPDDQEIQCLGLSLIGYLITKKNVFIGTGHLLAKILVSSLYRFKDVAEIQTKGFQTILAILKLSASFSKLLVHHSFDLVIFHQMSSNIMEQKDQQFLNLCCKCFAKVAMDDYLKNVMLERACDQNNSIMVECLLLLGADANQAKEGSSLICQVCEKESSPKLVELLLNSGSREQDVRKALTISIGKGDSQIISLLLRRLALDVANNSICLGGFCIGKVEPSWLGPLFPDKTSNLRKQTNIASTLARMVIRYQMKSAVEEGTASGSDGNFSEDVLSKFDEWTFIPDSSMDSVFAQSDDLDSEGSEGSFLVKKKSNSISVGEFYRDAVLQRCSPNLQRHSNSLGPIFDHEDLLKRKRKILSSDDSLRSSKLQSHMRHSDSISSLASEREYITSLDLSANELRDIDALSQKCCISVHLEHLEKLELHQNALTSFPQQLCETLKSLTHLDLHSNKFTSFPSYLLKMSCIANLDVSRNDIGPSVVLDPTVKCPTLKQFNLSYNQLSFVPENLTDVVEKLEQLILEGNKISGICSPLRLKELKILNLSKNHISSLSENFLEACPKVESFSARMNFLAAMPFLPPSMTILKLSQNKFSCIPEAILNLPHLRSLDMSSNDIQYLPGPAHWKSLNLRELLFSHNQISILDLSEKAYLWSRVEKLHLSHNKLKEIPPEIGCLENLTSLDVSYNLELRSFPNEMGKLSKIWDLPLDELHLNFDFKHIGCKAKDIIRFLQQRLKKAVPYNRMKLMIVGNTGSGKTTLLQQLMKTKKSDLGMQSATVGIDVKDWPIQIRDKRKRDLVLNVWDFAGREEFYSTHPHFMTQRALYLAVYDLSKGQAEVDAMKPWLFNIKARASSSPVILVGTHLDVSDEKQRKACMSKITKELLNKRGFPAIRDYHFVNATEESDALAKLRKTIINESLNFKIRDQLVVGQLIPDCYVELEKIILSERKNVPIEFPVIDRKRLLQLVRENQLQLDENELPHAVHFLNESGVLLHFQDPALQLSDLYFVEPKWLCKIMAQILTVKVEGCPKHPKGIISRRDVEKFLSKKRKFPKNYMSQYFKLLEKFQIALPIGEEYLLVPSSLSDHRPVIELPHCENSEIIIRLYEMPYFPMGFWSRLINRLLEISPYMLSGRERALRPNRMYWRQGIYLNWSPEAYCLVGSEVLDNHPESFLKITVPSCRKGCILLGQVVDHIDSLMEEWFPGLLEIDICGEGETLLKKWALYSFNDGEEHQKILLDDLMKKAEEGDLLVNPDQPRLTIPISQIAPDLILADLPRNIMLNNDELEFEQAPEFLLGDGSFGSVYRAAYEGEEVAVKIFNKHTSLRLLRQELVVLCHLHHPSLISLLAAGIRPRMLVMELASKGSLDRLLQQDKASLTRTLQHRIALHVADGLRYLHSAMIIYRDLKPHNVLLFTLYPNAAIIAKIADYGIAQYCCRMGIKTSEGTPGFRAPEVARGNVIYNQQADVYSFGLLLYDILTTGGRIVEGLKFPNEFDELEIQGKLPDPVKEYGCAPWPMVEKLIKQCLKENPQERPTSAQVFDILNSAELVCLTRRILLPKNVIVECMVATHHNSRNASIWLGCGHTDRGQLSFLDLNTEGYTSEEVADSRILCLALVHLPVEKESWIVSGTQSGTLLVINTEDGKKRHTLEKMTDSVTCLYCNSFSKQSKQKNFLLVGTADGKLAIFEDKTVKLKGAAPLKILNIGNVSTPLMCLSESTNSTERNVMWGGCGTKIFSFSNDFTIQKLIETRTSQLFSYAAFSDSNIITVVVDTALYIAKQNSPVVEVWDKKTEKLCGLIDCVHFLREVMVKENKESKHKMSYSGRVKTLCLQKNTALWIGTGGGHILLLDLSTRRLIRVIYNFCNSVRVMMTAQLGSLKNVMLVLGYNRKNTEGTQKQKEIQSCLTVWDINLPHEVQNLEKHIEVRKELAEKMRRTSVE
T1 sequence (Q5S007 whole entry G2019S): as the sequence (Q5S007 whole entry) above, with G2019S counted along it

| Structure (SMILES) | DC50 (G2019S LRRK2) [nM] | Dmax (G2019S LRRK2) [%] | Dmax (wildtype LRRK2) [%] | DC50 (wildtype LRRK2) [nM] |
| --- | --- | --- | --- | --- |
| CC1(Oc2ccc3[nH]nc(-c4cc(N5CCN(C[C@@H]6CN(CC7CCN(c8ccc9c(c8)C(=O)N(C8CCC(=O)NC8=O)C9=O)CC7)CCO6)CC5)ncn4)c3c2)CC1 (stereo partly drawn) [Compound 156, 2-(2,6-dioxo-3-piperidyl)-5-[4-[[(2R)-2-[[4-[6-[5-(1-methylcyclopropoxy)-1H-indazol-3-yl]pyrimidin-4-yl]piperazin-1-yl]methyl]morpholin-4-yl]methyl]-1-piperidyl]isoindoline-1,3-dione] | < 10 | < 50 | 50 to 70 | < 10 |
| CC1(Oc2ccc3[nH]nc(-c4ccnc(N5CC6(CN(CC7CCN(CC8CCN(c9ccc%10c(c9)C(=O)N(C9CCC(=O)NC9=O)C%10=O)CC8)CC7)C6)C5)c4)c3c2)CC1 (stereo not shown) [Compound 161, 2-(2,6-dioxo-3-piperidyl)-5-[4-[[4-[[2-[4-[5-(1-methylcyclopropoxy)-1H-indazol-3-yl]-2-pyridyl]-2,6-diazaspiro[3.3]heptan-6-yl]methyl]-1-piperidyl]methyl]-1-piperidyl]isoindoline-1,3-dione] | 10 to 50 | 50 to 70 | 50 to 70 | 10 to 50 |
| CC1(Oc2ccc3[nH]nc(-c4ccnc(N5CCC56CN(CC5CCN(CC7CCN(c8ccc9c(c8)C(=O)N(C8CCC(=O)NC8=O)C9=O)CC7)CC5)C6)c4)c3c2)CC1 (stereo not shown) [Compound 162, 2-(2,6-dioxo-3-piperidyl)-5-[4-[[4-[[1-[4-[5-(1-methylcyclopropoxy)-1H-indazol-3-yl]-2-pyridyl]-1,6-diazaspiro[3.3]heptan-6-yl]methyl]-1-piperidyl]methyl]-1-piperidyl]isoindoline-1,3-dione] | ≥ 100 | < 50 | < 50 | 50 to 100 |

Other lines, results leading:

| DC50 (G2019S LRRK2) [nM] | Dmax (G2019S LRRK2) [%] | Dmax (wildtype LRRK2) [%] | DC50 (wildtype LRRK2) [nM] | Structure (SMILES) |
| --- | --- | --- | --- | --- |
| < 10 | 50 to 70 | 50 to 70 | < 10 | CC1(Oc2ccc3[nH]nc(-c4cc(N5CCO[C@H](CCN6CCN(CC7CCN(c8ccc9c(c8)C(=O)N(C8CCC(=O)NC8=O)C9=O)CC7)CC6)C5)ncn4)c3c2)CC1 (stereo partly drawn) [Compound 155, 2-(2,6-dioxopiperidin-3-yl)-5-{4-[(4-{2-[(2R)-4-{6-[5-(1-methylcyclopropoxy)-1H-indazol-3-yl]pyrimidin-4-yl}morpholin-2-yl]ethyl}piperazin-1-yl)methyl]piperidin-1-yl}-2,3-dihydro-1H-isoindole-1,3-dione] |
| < 10 | ≥ 70 | 50 to 70 | < 10 | CC1(Oc2ccc3[nH]nc(-c4cc(N5CCN(C[C@H]6CN(CC7CCN(c8ccc9c(c8)C(=O)N(C8CCC(=O)NC8=O)C9=O)CC7)CCO6)CC5)ncn4)c3c2)CC1 (stereo partly drawn) [Compound 157, 2-(2,6-dioxopiperidin-3-yl)-5-(4-{[(2S)-2-[(4-{6-[5-(1-methylcyclopropoxy)-1H-indazol-3-yl]pyrimidin-4-yl}piperazin-1-yl)methyl]morpholin-4-yl]methyl}piperidin-1-yl)-2,3-dihydro-1H-isoindole-1,3-dione] |
| < 10 | ≥ 70 | ≥ 70 | < 10 | CC1(Oc2ccc3[nH]nc(-c4cc(N5CCN(C[C@@H]6CN(CCC7CCN(c8ccc9c(c8)C(=O)N(C8CCC(=O)NC8=O)C9=O)CC7)CCO6)CC5)ncn4)c3c2)CC1 (stereo partly drawn) [Compound 158, 2-(2,6-dioxo-3-piperidyl)-5-[4-[2-[(2R)-2-[[4-[6-[5-(1-methylcyclopropoxy)-1H-indazol-3-yl]pyrimidin-4-yl]piperazin-1-yl]methyl]morpholin-4-yl]ethyl]-1-piperidyl]isoindoline-1,3-dione] |
| < 10 | 50 to 70 | < 50 | < 10 | C[C@H]1CN(c2cc(-c3n[nH]c4ccc(OC5(C)CC5)cc34)ncn2)CCN1CC1CCN(CCC2CCN(c3ccc4c(c3)C(=O)N(C3CCC(=O)NC3=O)C4=O)CC2)CC1 (stereo partly drawn) [Compound 159, 2-(2,6-dioxo-3-piperidyl)-5-[4-[2-[4-[[(2S)-2-methyl-4-[6-[5-(1-methylcyclopropoxy)-1H-indazol-3-yl]pyrimidin-4-yl]piperazin-1-yl]methyl]-1-piperidyl]ethyl]-1-piperidyl]isoindoline-1,3-dione] |
